The source made the active and inactive calls. The calls are words filed in the database; no cut-off is given here.
How the values were obtained:
PBMC [1] = assay: Antiinflammatory activity in human PBMC assessed as inhibition of 1 ng/ml LPS-induced TNFalpha release at 140 uM pretreated 24 hrs before inducer-challenge measured 24 hrs after LPS addition by ELISA; type: functional
[2] = molecular target: Mitogen-activated protein kinase; ERK1/ERK2 (Homo sapiens) (UniProt P27361+P28482); assay: Inhibition of LPS-induced ERK1/2 phosphorylation in human PBMC at 140 uM pretreated 24 hrs before inducer-challenge measured 15 mins after LPS addition by Western blot; type: protein assay
Mitogen-activated protein kinase; ERK1/ERK2 (Homo sapiens), sequence (P27361 whole entry, looked up): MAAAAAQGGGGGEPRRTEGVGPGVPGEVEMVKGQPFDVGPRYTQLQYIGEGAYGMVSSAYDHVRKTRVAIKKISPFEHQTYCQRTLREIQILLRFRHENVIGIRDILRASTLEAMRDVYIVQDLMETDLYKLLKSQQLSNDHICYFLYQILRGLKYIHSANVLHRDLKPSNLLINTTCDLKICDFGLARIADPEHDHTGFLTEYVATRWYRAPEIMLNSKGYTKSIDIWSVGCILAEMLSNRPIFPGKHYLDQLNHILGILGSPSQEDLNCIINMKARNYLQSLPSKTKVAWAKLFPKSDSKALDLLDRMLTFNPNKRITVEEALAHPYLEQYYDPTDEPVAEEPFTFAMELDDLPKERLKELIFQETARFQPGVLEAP
Mitogen-activated protein kinase; ERK1/ERK2 (Homo sapiens), sequence (P28482 whole entry, looked up): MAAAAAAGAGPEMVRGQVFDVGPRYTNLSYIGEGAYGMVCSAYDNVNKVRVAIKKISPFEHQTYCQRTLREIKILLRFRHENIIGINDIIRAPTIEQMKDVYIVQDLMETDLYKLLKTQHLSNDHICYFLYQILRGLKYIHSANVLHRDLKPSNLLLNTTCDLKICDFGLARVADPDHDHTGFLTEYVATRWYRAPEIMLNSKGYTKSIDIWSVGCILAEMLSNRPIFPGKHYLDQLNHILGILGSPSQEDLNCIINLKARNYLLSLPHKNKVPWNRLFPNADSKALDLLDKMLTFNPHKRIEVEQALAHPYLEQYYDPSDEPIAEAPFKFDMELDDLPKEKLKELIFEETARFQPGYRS

PBMC [3] = assay: Antiinflammatory activity in human PBMC assessed as inhibition of 10 ng/ml LPS-induced TNFalpha release at 140 uM pretreated 24 hrs before inducer-challenge measured 24 hrs after LPS addition by ELISA; type: functional
[4] = molecular target: MAP kinase p38 (Homo sapiens) (UniProt O15264+Q15759+Q16539+P53778); assay: Inhibition of LPS-induced p38 MAPK phosphorylation in human PBMC at 140 uM pretreated 24 hrs before inducer-challenge measured 15 mins after LPS addition by Western blot; type: protein assay
PBMC [5] = assay: Inhibition of LPS-induced NFkappaB p65 subunit translocation into nucleus in human PBMC at 140 uM pretreated 24 hrs before inducer-challenge measured 15 mins after LPS addition by Western blot; type: functional, cell-based
PBMC [6] = assay: Antiinflammatory activity in human PBMC assessed as inhibition of 10 ng/ml LPS-induced TNFalpha release at 1.3 uM pretreated 24 hrs before inducer-challenge measured 24 hrs after LPS addition by ELISA; type: functional
PBMC [7] = assay: Antiinflammatory activity in human PBMC assessed as inhibition of 10 ng/ml LPS-induced TNFalpha release at 5.1 uM pretreated 24 hrs before inducer-challenge measured 24 hrs after LPS addition by ELISA; type: functional

Row | SMILES | inhibition (INH) (PBMC [1]) | inhibition [2] | inhibition (INH) (PBMC [3]) | inhibition [4] | inhibition (PBMC [5]) | inhibition (INH) (PBMC [6]) | inhibition (INH) (PBMC [7])
1 | COc1ccc(/C=C/C(=O)OCC(=O)Cc2ccc(O)c(O)c2)cc1O [CIMIRACEMATE A] | 47% | Active | 58% | inactive | Active |  | 
2 | C[C@@H]1C[C@H]2[C@@H]3CCC4=CC(=O)C=C[C@]4(C)[C@@]3(F)[C@@H](O)C[C@]2(C)[C@@]1(O)C(=O)CO [DEXAMETHASONE] |  |  |  |  |  | 32% | 25%

— ChEMBL document CHEMBL1154355, “Identification of the bioactive constituent and its mechanisms of action in mediating the anti-inflammatory effects of black cohosh and related Cimicifuga species on human primary blood macrophages” (2009)
